Calls of active or inactive are those of the source. The calls are words filed in the database; no cut-off is given here.
Key:
[1] = Cytotoxicity against mouse GL26 cells assessed as inhibition of cell growth incubated for 48 hrs by MTT assay; type: functional, cell-based; conditions: GL26, 48 h
[2] = biological target: T1, Amine oxidase [flavin-containing] A (Homo sapiens, UniProt P21397); assay: Inhibition of MAO-A (unknown origin) expressed in mouse GL26 cells using 14C 5-hydroxytryptamine as substrate pre-incubated for 20 mins followed by substrate addition measured after 20 mins by liquid scintillation spectroscopy; type: cell-based
T1 sequence (P21397 whole entry): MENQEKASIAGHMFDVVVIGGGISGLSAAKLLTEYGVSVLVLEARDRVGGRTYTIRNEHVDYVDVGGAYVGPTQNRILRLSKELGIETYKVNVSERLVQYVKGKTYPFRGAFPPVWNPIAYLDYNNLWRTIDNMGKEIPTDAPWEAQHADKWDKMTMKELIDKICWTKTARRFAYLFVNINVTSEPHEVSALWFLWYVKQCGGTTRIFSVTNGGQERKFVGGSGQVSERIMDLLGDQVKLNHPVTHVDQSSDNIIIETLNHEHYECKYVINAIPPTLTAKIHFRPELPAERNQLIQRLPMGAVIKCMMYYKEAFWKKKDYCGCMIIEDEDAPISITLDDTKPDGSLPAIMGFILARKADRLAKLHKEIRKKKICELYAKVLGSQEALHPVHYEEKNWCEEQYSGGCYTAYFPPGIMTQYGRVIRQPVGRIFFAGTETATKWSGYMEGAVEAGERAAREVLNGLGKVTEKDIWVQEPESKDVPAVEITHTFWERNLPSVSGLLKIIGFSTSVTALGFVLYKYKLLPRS

Histone deacetylase 1 = Histone deacetylase 1 (Homo sapiens, UniProt Q13547); assay: Inhibition of human HDAC1 (379 to 382 residues) using RHKKAc-AMC fluorogenic peptide as substrate by fluorescence assay
Histone deacetylase 2 = Histone deacetylase 2 (Homo sapiens, UniProt Q92769); assay: Inhibition of human HDAC2 (379 to 382 residues) using RHKKAc-AMC fluorogenic peptide as substrate by fluorescence assay
[3] = biological target: T2, Protein deacetylase HDAC6 (Homo sapiens, UniProt Q9UBN7); assay: Inhibition of human HDAC6 (379 to 382 residues) using RHKKAc fluorogenic peptide as substrate by fluorescence assay
T2 sequence (Q9UBN7 whole entry): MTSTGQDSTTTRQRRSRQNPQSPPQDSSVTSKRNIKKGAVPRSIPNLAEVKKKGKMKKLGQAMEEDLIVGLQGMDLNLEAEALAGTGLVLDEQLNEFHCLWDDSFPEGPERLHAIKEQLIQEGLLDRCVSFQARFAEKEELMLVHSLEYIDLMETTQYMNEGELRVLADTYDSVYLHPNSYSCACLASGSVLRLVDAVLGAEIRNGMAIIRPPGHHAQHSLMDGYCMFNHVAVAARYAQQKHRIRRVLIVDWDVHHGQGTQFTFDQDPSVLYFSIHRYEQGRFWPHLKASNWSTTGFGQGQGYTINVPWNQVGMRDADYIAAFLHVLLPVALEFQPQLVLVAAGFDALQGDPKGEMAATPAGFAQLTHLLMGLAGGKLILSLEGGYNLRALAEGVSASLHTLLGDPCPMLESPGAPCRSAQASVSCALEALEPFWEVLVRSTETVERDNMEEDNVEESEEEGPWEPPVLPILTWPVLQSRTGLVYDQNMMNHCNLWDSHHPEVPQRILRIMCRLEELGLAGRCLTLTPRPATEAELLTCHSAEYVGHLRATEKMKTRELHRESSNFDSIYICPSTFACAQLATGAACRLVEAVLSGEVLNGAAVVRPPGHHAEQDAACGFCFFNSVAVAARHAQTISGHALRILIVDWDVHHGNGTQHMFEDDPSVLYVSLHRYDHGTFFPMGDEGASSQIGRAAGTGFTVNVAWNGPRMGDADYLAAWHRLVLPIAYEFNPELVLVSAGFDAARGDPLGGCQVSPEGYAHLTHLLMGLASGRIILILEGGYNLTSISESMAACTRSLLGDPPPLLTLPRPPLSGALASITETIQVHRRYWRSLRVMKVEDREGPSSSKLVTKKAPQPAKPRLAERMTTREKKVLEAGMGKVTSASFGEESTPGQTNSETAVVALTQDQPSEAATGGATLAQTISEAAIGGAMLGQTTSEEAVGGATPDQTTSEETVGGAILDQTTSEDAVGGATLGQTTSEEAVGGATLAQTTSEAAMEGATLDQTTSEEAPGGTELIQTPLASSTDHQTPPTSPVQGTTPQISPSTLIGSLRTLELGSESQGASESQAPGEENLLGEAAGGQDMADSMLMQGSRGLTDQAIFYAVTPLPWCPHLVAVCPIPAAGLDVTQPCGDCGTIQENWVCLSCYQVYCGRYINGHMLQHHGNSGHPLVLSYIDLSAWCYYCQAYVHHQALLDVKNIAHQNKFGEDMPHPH

Histone deacetylase 8 = biological target: T3, Histone deacetylase 8 (Homo sapiens, UniProt Q9BY41); assay: Inhibition of human HDAC8 (379 to 382 residues) using RHKKAcKAc-AMC fluorogenic peptide as substrate by fluorescence assay
T3 sequence (Q9BY41 whole entry): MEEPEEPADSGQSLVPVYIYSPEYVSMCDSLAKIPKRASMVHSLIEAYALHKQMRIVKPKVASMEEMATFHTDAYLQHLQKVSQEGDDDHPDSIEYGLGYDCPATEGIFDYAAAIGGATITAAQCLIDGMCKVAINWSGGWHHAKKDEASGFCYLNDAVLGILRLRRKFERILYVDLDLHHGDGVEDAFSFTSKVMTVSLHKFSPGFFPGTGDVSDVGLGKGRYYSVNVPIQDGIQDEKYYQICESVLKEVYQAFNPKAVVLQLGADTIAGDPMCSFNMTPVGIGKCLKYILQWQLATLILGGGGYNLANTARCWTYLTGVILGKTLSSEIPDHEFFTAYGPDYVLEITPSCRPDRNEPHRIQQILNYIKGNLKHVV

U-251 [4] = assay: cells; type: functional, cell-based; conditions: Homo sapiens, U-251, 48 h
Description: Cytotoxicity against human TMZ-sensitive U251 cells assessed as inhibition of cell growth incubated for 48 hrs by MTT assay

U-251 [5] = assay: cells; type: functional, cell-based; conditions: Homo sapiens, U-251, 48 h; remark: listed apart in the source
Description: Cytotoxicity against human TMZ-resistant U251 cells assessed as inhibition of cell growth incubated for 48 hrs by MTT assay

Mus musculus [6] = assay: In vivo inhibition of MAO-A in C57BL6 mouse xenografted with mouse GL26 cells as decrease in MAO activity in brain at 50 mg/kg, ip by radiometric analysis; type: functional, organism-based
GL26 [7] = assay: Antitumor activity against mouse GL26 cells implanted in C57BL6 mouse assessed as reduction in tumor size at 50 mg/kg, ip daily measured for 10 days by bioluminescence assay; type: functional, organism-based; conditions: time 10.0 day
[8] = Toxicity in C57BL6 mouse xenografted with mouse GL26 cells as assessed as last day of survival at 50 mg/kg, ip for 14 days treatment started at 5 days post-infection (Rvb=14 days); type: organism-based; conditions: in vivo, 336 h, time 14 day
Mus musculus [9] = assay: (§1) In vivo inhibition of MAO-A in mouse xenografted with mouse GL26 assessed as decrease in MAO activity in tumor at 50 mg/kg by radiometric analysis; type: functional
Mus musculus [10] = assay: In vivo inhibition of MAO-A in mouse xenografted with mouse GL26 assessed as decrease in MAO activity in brain at 25 mg/kg, ip administered for 10 days by bioluminescence assay; type: functional, organism-based; conditions: time 10.0 day
Mus musculus [11] = assay: In vivo inhibition of MAO-A in mouse xenografted with mouse GL26 assessed as decrease in MAO activity in tumor at 25 mg/kg, ip administered for 10 days by bioluminescence assay; type: functional, organism-based; conditions: time 10.0 day
[12] = Toxicity in mouse bearing intracranial tumor assessed as median survival time at 50 mg/kg, ip for 10 days (Rvb= 13.8 days); type: organism-based; conditions: in vivo, 240 h, time 10 day
[13] = Toxicity in mouse bearing intracranial tumor assessed as assessed as median survival time at 50 mg/kg, ip for 14 days treatment started at 5 days post-infection (Rvb=12.8 days); type: organism-based; conditions: in vivo, 336 h, time 14 day
[14] = Toxicity in mouse bearing intracranial tumor assessed as assessed as median survival time at 25 mg/kg, ip treatment started at 7 dpi (Rvb=18.25 days); type: organism-based; conditions: in vivo, 438 h
[15] = Toxicity in mouse bearing intracranial tumor assessed as last day of survival at 25 mg/kg, ip treatment started at 7 dpi (Rvb=19 days); type: organism-based; conditions: in vivo, 456 h
GL26 [16] = assay: Induction of apoptosis in mouse GL26 cells assessed as proteolytic cleavage of PARP1 incubated for 48 hrs by Western blot analysis; type: functional, cell-based; conditions: dose 1.25-5 µM, DDE = dose-dependent effect
[17] = Toxicity in mouse bearing intracranial tumor assessed as last day of survival at 25 mg/kg, ip in presence of clorgyline for 10 days (Rvb=16 days); type: organism-based; conditions: in vivo, 240 h, time 10 day
[18] = Toxicity in mouse bearing intracranial tumor assessed as last day of survival at 50 mg/kg, ip in presence of clorgyline for 10 days (Rvb=16 days); type: organism-based; conditions: in vivo, 240 h, time 10 day
[19] = Toxicity in mouse bearing intracranial tumor assessed as median survival time at 25 mg/kg, ip in presence of clorgyline for 10 days (Rvb=13.8 days); type: organism-based; conditions: in vivo, 240 h, time 10 day
[20] = Toxicity in mouse bearing intracranial tumor assessed as median survival time at 50 mg/kg, ip in presence of clorgyline for 10 days (Rvb=13.8 days); type: organism-based; conditions: in vivo, 240 h, time 10 day
U-251 [21] = assay: Cytotoxicity against human U251 cells assessed as inhibition of cell growth incubated for 48 hrs by MTT assay; type: functional, cell-based; conditions: DDE = dose-dependent effect
[22] = biological target: Lysine-specific histone demethylase 1A (Homo sapiens, UniProt O60341); assay: Inhibition of human LSD1 assessed as demethylase activity of LSD1 using Histone H3(1-21)K4me2 peptide as substrate incubated for 30 mins followed by substrate addition by amplex red dye based HRP-coupled assay
[23] = as §1; type: functional; design: scale not given: the % may be the effect or the level left
[24] = Toxicity in mouse bearing intracranial tumor assessed as last day of survival at 50 mg/kg,ip for 10 days (Rvb=16 days); type: organism-based; conditions: in vivo, 240 h, time 10 day

Histone deacetylase 2, sequence (Q92769 whole entry, the tested form may be a part): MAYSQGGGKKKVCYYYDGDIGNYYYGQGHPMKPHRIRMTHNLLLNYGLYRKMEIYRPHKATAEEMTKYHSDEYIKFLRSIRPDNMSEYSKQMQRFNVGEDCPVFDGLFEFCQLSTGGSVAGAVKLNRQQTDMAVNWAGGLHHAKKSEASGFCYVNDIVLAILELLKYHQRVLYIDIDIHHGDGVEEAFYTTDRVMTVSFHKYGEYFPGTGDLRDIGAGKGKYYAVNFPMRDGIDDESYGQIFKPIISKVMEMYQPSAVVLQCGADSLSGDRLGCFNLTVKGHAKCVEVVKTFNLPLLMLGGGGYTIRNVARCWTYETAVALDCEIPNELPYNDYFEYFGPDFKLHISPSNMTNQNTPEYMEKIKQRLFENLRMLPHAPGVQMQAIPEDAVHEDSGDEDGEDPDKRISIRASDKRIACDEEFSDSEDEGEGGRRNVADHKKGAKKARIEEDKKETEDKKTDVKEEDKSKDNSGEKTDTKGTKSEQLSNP
Histone deacetylase 1, sequence (Q13547 whole entry, the tested form may be a part): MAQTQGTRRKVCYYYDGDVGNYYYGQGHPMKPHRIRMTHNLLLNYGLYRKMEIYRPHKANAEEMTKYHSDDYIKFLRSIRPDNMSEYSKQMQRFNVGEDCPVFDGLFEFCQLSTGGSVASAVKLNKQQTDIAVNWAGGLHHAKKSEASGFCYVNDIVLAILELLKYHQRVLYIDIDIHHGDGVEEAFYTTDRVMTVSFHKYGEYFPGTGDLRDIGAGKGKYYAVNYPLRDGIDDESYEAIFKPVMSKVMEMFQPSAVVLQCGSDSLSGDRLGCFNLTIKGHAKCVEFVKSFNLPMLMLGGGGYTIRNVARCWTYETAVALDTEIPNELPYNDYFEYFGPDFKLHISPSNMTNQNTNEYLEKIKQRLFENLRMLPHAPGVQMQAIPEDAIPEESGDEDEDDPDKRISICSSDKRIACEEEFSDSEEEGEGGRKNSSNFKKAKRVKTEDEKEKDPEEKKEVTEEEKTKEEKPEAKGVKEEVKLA

Structure (SMILES) | IC50 [1] | IC50 [2] | IC50 (Histone deacetylase 1) | IC50 (Histone deacetylase 2) | IC50 [3] | IC50 (Histone deacetylase 8) | IC50 (U-251 [4]) | IC50 (U-251 [5]) | Survival [12] | other results
C#CCN(C)CCCOc1cc(NC(=O)CCCCCCC(=O)NO)ccc1Cl | 1150 nM | 3250 nM | 30 nM | 150 nM | 10 nM | 50 nM | 120 nM | 600 nM |  | 
C#CCN(C)CCCOc1cc(NC(=O)CCCCCCCCC(=O)NO)ccc1Cl | 1040 nM | < 0.1 nM | 1420 nM | 3630 nM | 160 nM | 2480 nM | 33200 nM | 16200 nM | 14.8 days | Activity (Mus musculus [6]): Active; Activity (GL26 [7]): Active; Survival [8]: 16 days; Activity (Mus musculus [9]): Active; Activity (Mus musculus [10]): Active; Activity (Mus musculus [11]): Active; MST [13]: 14.5 days; MST [14]: 18 days; Survival [15]: 21 days
O=C(CCCCCCC(=O)Nc1ccccc1)NO [VORINOSTAT] | 2200 nM |  |  |  |  |  |  |  | 13.8 days | Activity (GL26 [16]): Dde; Survival [17]: 14 days; Survival [18]: 18 days; MST [19]: 13.8 days; MST [20]: 14.4 days
C#CCN(C)CCCOc1cc(NC(=O)CCCCCCC(=O)NO)c(Cl)cc1Cl | 74000 nM | 430 nM | 3290 nM | 6680 nM | 60 nM | 1780 nM | 50600 nM | 8670 nM |  | 
C#CCN(C)CCCOc1cccc(NC(=O)CCCCCCC(=O)NO)c1Cl | 1740 nM | 23300 nM | 890 nM | 3210 nM | 90 nM | 1470 nM | 5820 nM | 4090 nM |  | 
C#CCN(C)CCCOc1cc(NC(=O)CCCCCCCC(=O)NO)ccc1Cl | 19300 nM | 20 nM | 2310 nM | 4180 nM | 80 nM | 1120 nM | 11500 nM | 4780 nM |  | 
C#CCN(C)CCCOc1cc(NCc2ccc(C(=O)NO)cc2)ccc1Cl | 2410 nM | 0.4 nM | 2510 nM | 4750 nM | 10 nM | 1170 nM | 10100 nM | 7120 nM | 16.8 days | Activity (U-251 [21]): Dde; EC50 [22]: 6000 nM; Activity (Mus musculus [6]): Active; Activity (GL26 [7]): Active; Survival [8]: 18 days; Activity [23]: 90%; Activity (Mus musculus [10]): Active; Activity (Mus musculus [11]): Active; Survival [24]: 20 days; MST [13]: 14.25 days; MST [14]: 19.75 days; Survival [15]: 23 days

— ChEMBL document CHEMBL5154693, “N-Methylpropargylamine-Conjugated Hydroxamic Acids as Dual Inhibitors of Monoamine Oxidase A and Histone Deacetylase for Glioma Treatment” (J Med Chem, 2022)
